Consider 4 compounds from US6291482A, “N-hydroxyurea derivative and pharmaceutical composition containing the same” (Nikken Chemicals Co., LTD, priority 1997, dated 2001).

The term ED50 denotes the dose that gives a 50% effect, or the effect in half of the subjects. What is called IC50 is the concentration that gives 50% inhibition.

One assay addresses T1, 5-lipoxygenase (Rattus norvegicus, UniProt P12527).
T1 construct: from tissue; host or cells: whole blood of male SD rats
T1 sequence (P12527 1-673): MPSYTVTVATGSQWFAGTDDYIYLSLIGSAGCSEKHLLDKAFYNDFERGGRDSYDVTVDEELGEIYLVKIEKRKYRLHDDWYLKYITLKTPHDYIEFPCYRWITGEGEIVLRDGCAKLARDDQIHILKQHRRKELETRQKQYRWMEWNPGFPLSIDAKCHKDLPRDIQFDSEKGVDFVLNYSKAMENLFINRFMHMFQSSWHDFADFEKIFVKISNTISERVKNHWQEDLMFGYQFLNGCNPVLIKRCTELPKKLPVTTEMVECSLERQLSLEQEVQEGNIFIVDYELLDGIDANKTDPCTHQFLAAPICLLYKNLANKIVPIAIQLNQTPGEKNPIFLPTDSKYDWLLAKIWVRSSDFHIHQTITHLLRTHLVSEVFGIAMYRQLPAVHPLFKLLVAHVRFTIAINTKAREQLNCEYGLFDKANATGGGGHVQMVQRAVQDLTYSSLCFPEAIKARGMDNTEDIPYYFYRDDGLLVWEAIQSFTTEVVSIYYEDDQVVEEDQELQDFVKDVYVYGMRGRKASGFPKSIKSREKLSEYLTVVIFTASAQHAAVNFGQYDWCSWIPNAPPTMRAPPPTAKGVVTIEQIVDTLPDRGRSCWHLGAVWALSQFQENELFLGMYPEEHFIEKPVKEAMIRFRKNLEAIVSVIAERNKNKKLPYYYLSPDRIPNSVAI
Briefly: Lipoxygenase inhibitory activity ex vivo (leukotriene B4 in blood after oral administration). The settings on record: 1 h, SD male rats, one hour before blood sampling, read-out: LTBI ED50 (50% inhibitory amount). From the text: (§1) (Measurement of Lipoxygenase Inhibitory Activity and Thromboxane Synthase Inhibitory Activity in Ex Vivo)
(§2) For the test animals, SD male rats were used. These were made to fast from the day before the test. The test drug was suspended in 0.5% sodium carboxymethylcellulose and orally administered one hour before the blood was taken. The blood was taken from the abdominal aorta and divided for the measurement of the thromboxane synthase inhibitory activity and the 5-lipoxygenase inhibitory activity.
The 5-lipoxygenase activity was shown using as an indicator the amount of production of leukotriene B4. 50 μM calcium ionophor (A-23187) was added to the divided blood to start the reaction (37° C., 30 minutes), and 1 mM Indomethacin, 1 mM Phenidone, and 0.1 mM EGTA were added to stop the reaction. The plasma was centrifuged (3000 rpm, 20 minutes, 4° C.) and the leukotriene B4 in the plasma was measured by the EIA method.

For assay [1], the target named is T2, thromboxane synthase (Rattus norvegicus, UniProt P49430).
T2 construct: The divided blood was allowed to naturally coagulate; from tissue; host or cells: whole blood of male SD rats, allowed to clot
T2 sequence (P49430 1-533): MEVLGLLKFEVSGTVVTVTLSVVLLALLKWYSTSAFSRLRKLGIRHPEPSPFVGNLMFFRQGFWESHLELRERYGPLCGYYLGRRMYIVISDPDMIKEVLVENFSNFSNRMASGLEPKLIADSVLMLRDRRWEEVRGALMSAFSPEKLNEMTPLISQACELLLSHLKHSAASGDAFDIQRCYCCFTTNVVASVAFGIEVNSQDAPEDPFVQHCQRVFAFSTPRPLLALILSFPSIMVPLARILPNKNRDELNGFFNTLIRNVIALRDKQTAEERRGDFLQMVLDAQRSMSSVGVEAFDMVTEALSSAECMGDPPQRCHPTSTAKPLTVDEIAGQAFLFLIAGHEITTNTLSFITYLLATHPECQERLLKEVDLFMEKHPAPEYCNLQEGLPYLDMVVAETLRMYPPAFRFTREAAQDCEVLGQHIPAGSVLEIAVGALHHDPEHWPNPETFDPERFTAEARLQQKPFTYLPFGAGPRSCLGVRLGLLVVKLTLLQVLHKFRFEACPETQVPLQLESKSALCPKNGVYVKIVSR
Briefly: Thromboxane synthase inhibitory activity ex vivo (thromboxane B2 in serum after oral administration). As to conditions: 1 h, SD male rats, one hour before blood sampling, read-out: TxSI ED50 (50% inhibitory amount).
Description: as §1, §2
On the other hand, the thromboxane synthase activity was shown using as an indicator the amount of production of the thromboxane A2 stable metabolite thromboxane B2. The divided blood was allowed to naturally coagulate (25° C., 90 minutes) and then the serum was centrifuged (3000 rpm, 20 minutes, 4° C.) and the amount of thromboxane B2 in the serum was measured by the EIA method.

Assay [2] concerns antigen-induced bronchoconstriction. Briefly: Antigen-induced bronchoconstriction model of guinea pig (Konzett-Rossler method). The format is in vivo. As to conditions: 2 hours after administration, ovalbumin-sensitized guinea pigs. The procedure: (Pharmacological Activity on Antigen-Induced Bronchoconstriction Model of Guinea Pig)
Guinea pigs sensitized by ovalbumin were used and orally administered with the test compound suspended in 5% gum arabic. The activity for inhibiting antigen-induced bronchoconstriction after 2 hours after administration was measured by the Konzett-Rossler method.
Each of the sensitized guinea pigs (i.e., 5-7 pigs in one group) was anesthesized by 35 mg/kg pentobarbital, a cannula was inserted into the respiratory tract and connected to an artificial respirator, a cannula was inserted into the jugular vein, and treatment was performed by 5 mg/kg suxamethonium and 5 mg/kg mepyramine. Next, the guinea pig was inhaled a nebulized ovalbumin to cause bronchoconstriction and the activity in inhibiting bronchoconstriction was found from the ratio of the amount of overflow volume to the detector to the amount of air blown volume from the artificial respirator.
As the test compound, the present Compound (I) were used, and as the control, the above compound (A) and the thromboxane synthase inhibitor ozagrel hydrochloride (OKY-046) were used.

The target of another assay is T3, lipoxygenase (Rattus norvegicus, UniProt P12527).
T3 construct: the peritoneal cavities were lavaged and the polymorphonuclear leukocytes were recovered; endogenous in cells; host or cells: peritoneal polymorphonuclear leukocytes of male SD rats (casein-elicited)
T3 sequence (P12527 1-673): T1 sequence (P12527 1-673)
Briefly: Test of lipoxygenase inhibitory activity in vitro (leukotriene B4 production in polymorphonuclear leukocytes). The format is cell-based. As to conditions: calcium ionophore A-23187, read-out: LTBI IC50 (inhibition of the production of leukotriene B4). The method, then: (Test of Lipoxygenase Inhibitory Activity in In Vitro)
Using rat polymorphonuclear leukocytes, a test was conducted using as an indicator the amount of production of leukotriene B4. SD male rats (Japan Clea) were intraperitoneally administered with 12% sodium casein. After 16 hours, the peritoneal cavities were lavaged and the polymorphonuclear leukocytes were recovered. The polymorphonuclear leukocytes thus obtained were suspended in a phosphate buffer (137 mM NaCl, 3 mM KCl, 8 mM Na2 HPO4, 2 mM KH2 PO4) (2.5×10^5 cells/0.4 ml), then the test compound (final concentration 10^-5 M) was added and incubation performed for 10 minutes at 37° C. then a calcium solution (10 mM CaCl2, 0.86% NaCl) 0.1 ml was added and incubation performed for 5 minutes, then 1.25 μl of calcium ionophore (20 μM, A-23187) was added and the reaction started. Five minutes after the addition, 250 μl of methanol was added to stop the reaction. After the reaction was stopped, the result was centrifuged for 20 minutes (4° C., 3000 rpm), then the amount of leukotriene B4 in the supernatant was measured by the EIA method (Cayman Co. kit).
(§3) As the test compound, the compound (I) was used for the test.

Assay [3] has as its target T4, thromboxane synthase (Homo sapiens, UniProt P24557).
T4 construct: Human platelet microsomes were used; from tissue; host or cells: human platelet microsomes
T4 sequence (P24557 1-533): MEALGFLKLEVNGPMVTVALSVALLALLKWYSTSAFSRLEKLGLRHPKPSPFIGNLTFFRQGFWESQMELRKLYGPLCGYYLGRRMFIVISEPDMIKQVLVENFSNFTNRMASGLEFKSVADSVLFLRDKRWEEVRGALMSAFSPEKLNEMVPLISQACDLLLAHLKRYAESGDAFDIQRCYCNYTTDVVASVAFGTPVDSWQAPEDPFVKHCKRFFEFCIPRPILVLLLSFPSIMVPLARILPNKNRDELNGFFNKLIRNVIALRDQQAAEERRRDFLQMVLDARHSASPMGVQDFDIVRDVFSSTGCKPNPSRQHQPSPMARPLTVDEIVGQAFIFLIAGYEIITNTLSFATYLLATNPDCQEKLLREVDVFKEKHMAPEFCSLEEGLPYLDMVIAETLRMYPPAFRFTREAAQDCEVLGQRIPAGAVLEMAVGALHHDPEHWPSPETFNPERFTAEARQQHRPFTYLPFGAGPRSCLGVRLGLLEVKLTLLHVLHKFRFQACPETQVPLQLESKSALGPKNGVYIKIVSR
Briefly: Test of thromboxane synthase inhibitory activity in vitro (thromboxane B2 production, platelet microsomes). As to conditions: prostaglandin H2 substrate, read-out: TxSI IC50 (inhibition of production of thromboxane B2). The format is biochemical. The method, then: (Test of Thromboxane Synthase Inhibitory Activity in In Vitro)
Human platelet microsomes were used and a test performed using as an indicator the amount of production of the thromboxane A2 stable metabolite thromboxane B2. A buffer solution (20 mM tris-HCl buffer solution, 1 mM EDTA, pH 7.5) containing human platelet microsomes (50 μg protein/ml) and the test compound (final concentration of 10^-6 M) was stirred, then incubated at 0° C. for 30 minutes, followed by adding prostaglandin H2 (100 ng/2 μl ). This was made acidic to stop the reaction, then neutralized with 1M Tris-base, then centrifuged at 3000 rpm for 20 minutes. The amount of the thromboxane B2 in the supernatant was measured by the EIA method (Cayman Co. kit).
as §3

SMILES strings stand for the structures. Where a name gives a salt, the structure may show the parent alone.

On to `NC(=O)N(O)CC1=Cc2cc(Oc3ccccc3)ccc2OC1` [Compound (A)], for which the ED50 was 1.7 mg/kg on 5-lipoxygenase and over 30 mg/kg at thromboxane synthase [1]. In addition, the “Suppression rate of respiratory constriction” value (“Suppression rate” below) in assay [2] (100 mg/kg oral) is reported as 26%.

Turning to `NC(=O)N(O)CC1=Cc2cc(Cc3cccnc3)ccc2OC1` [Compound (I), N-hydroxy-N-[6-(3-pyridylmethyl)-2H-1-benzopyran-3-ylmethyl]urea], the figures for the IC50 at lipoxygenase and at thromboxane synthase [3] were 200 nM and 300 nM, respectively. Besides, the ED50 was determined as 1.7 mg/kg at 5-lipoxygenase and 1.5 mg/kg at thromboxane synthase [1]. In assay [2] (50 mg/kg oral), the “Suppression rate” value is 75%.

For `NC(=O)N(O)CC1=Cc2cc(OCc3cccnc3)ccc2OC1` [(B)], the values for the ED50 on 5-lipoxygenase and on thromboxane synthase [1] were 9 mg/kg and over 10 mg/kg, respectively.

Take `O=C(O)/C=C/c1ccc(Cn2ccnc2)cc1` [OKY-046, ozagrel hydrochloride]: in assay [2] (100 mg/kg oral), the “Suppression rate” value is on record as 42%.
